The values that follow come from BindingDB's records for doi:10.1021/jm8011036 (Glaxosmithkline, 2008).

Structures are written as SMILES.

The target of this test is Casein kinase I isoform alpha (Homo sapiens, UniProt P48729). Kind of test: Binding affinity to human CK1alpha2.
Sequence of Casein kinase I isoform alpha (P48729 whole entry, canonical isoform): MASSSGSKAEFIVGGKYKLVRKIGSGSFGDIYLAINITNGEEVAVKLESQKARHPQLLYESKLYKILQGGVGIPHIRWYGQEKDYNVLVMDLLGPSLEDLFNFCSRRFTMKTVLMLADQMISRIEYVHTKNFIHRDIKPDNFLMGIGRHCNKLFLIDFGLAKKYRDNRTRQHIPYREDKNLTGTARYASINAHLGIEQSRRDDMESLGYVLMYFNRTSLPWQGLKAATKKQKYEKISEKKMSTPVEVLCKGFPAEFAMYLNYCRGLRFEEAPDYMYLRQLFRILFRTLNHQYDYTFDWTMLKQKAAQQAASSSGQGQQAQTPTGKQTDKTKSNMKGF

Take `CC(=O)c1c(-c2ccncc2)[nH]c(-c2ccncc2)c1C` [1-(4-methyl-2,5-di(pyridin-4-yl)-1H-pyrrol-3-yl)ethanone]: the Kd was 225 nM.

A word on the Kd: it is the equilibrium constant for the complex coming apart. The low end stands for tighter binding, the high end for weaker binding.
